Data published in paper PMC4545913, “Dual EZH2 and EHMT2 histone methyltransferase inhibition increases biological efficacy in breast cancer cells” (Clinical Epigenetics, 2015).
pIC50: −log10 of the molar value.

Experiments:
Type in all cases: cell-based
SUDLH8 = experiment: Lymphoma cell growth, cell counting following propidium iodide staining; details: EZH2 W.T. (amplified), 48 h, PI negative cell count
Method: (§1) For clonogenic assays, cells were treated with compound for 48 h, media were removed and replaced with fresh media for a further 12 days to measure colony formation. For cell viability assays, lymphoma cells were plated at 20,000 cells in 200 μl per well in U-bottom 96 well plates in RPMI medium +20 % FCS. Cells were re-suspended 48 h later, diluted 10-fold in PBS + propidium iodide (PI) and the concentration of PI negative cells was counted using an Attune flow cytometer with autosampler. Breast cancer cells were seeded at a density of 10,000 cells/well in a sterile 96 clear-well plate with 150 μl of DMEM (+10 % FCS and 2 mM L-Glutamine). Each compound treatment was performed in triplicate for 72 h at concentrations of 100 nM and 1, 5, 10 and 50 μM in 100 μl of full-medium. After 72 h, 20 μl of MTT solution (3 mg of MTT Formazan, Sigma/1 ml PBS) was added to the medium and incubated for 4 h at 37 °C in a CO2 incubator. The MTT-product was solubilised with 100 μl DMSO, and for 1 h, incubated in the dark at room temperature. The optical density was read at 570 nm with PHERAstar.

WILL1 = experiment: as above; details: WILL-1, EZH2 W.T., 48 h, PI negative cell count
Method: as §1

SC1 = experiment: as above; details: Homo sapiens, SC-1, EZH2 W.T., 48 h, PI negative cell count
Method: as §1

DOHH2 = experiment: as above; details: Homo sapiens, DOHH-2, EZH2 W.T., 48 h, PI negative cell count
Method: as §1

WSU-FSCLL = experiment: as above; details: EZH2 W.T., 48 h, PI negative cell count
Method: as §1

DB = experiment: as above; details: Homo sapiens, EZH2 Mutant Y646N, 48 h, PI negative cell count
Method: as §1

BT-474 = experiment: MTT cell viability assay; details: Homo sapiens, read-out: Cell growth IC50 BT-474
Method: as §1

MCF-7 = experiment: MTT cell viability assay; details: Homo sapiens, MCF7, read-out: Cell growth IC50 MCF-7
Method: as §1

T-47D = experiment: MTT cell viability assay; details: Homo sapiens, T47D, read-out: Cell growth IC50 T-47D
Method: as §1

SkBr3 = experiment: MTT cell viability assay; details: Homo sapiens, SK-BR-3, read-out: Cell growth IC50 SkBr3
Method: as §1

MDA-MB-231 cells = experiment: Caspase 3/7 activity (apoptosis); details: MDA-MB-231, dose-dependent (Figure S2)
SPINK1 = experiment: qRT-PCR of SPINK1 mRNA in MDA-MB-231 cells; details: MDA-MB-231, multiple doses and time points
Method: Following compound treatment of MDA-MB-231 for 48 h (in 6-well plates), media was removed and 1.5 ml of TRIzol (Invitrogen) was added directly to lyse cells and RNA was isolated according to the manufacturer’s instructions. Reverse transcription was done using the SuperScript III First-Strand Synthesis System (Invitrogen) according to the manufacturer’s instructions. Each measurement was done in triplicate, and the List of Primers can be found in Additional file 2: Table S1. For normalisation, we have used GAPDH and RNA pol II. Experiments were also done with the ‘Fast Sybr Green Cell-to-CT™-Kit’ according to the manufacturer’s instructions (Applied Biosystem). Fifteen thousand cells per 96 well were plated, and after 24 h, treated with compounds at various concentrations.
For qRT-PCR measurements the 2x iQ SYBR Green Supermix (Bio-Rad), 200nM Primers and 0.4μl of cDNA /per 20μl reaction was used. The measurement was done in low-white 96-well plates (Bio-Rad) on a CFX96 Real-time System/C1000 Thermal Cycler (Bio-Rad) with the following protocol: 95°C for 3’; 95°C for 10’’, 56°C for 10’’, 72°C for 30’’ 42 cycles followed by a melting curve from 72°C to 95°C.

MCF10a = experiment: MTT cell viability assay, normal breast epithelial cell line; details: Homo sapiens, MCF-10A, read-out: Cell growth IC50 MCF10a
Method: as §1

Work on `COc1cc2nc(N3CCN(C)CC3)nc(NC3CCN(Cc4ccccc4)CC3)c2cc1OC` [HKMTI-1-005] yielded a pIC50 (SUDLH8) greater than 6.00, a pIC50 (WILL1) of 5.25 and a pIC50 (SC1) of 5.43. The pIC50 (DOHH2) was 5.49, the pIC50 (WSU-FSCLL) was 5.47 and the pIC50 (DB) was greater than 6.00. It also gave a pIC50 (BT-474) of 5.68, a pIC50 (MCF-7) of 5.11 and a pIC50 (T-47D) of 5.07. The pIC50 (SkBr3) was 5.11, the “Induction of apoptosis measured by Caspase 3/7 activity” value (MDA-MB-231 cells) was “induces apoptosis” and the “SPINK1 expression upon treatment” value (SPINK1) was “increased”. The pIC50 (MCF10a) was less than 4.82.
